According to US5145955A, “Process for the preparation and composition of a fraction containing picroside I and kutkoside” (Council of Scientific & Industrial Research, priority 1991, dated 1992):
Where two headings read alike, the source gives them in different places.

What was measured:
[1] = system: Plasmodium berghei infection in mastomys; test: Hepatoprotective activity against Plasmodium berghei infection-induced hepatic damage; assay type: in vivo; conditions: 1 mg/kg po × 15 days
isolated rat hepatocytes = assay type: cell-based; conditions: paracetamol-toxicated
Method: In the isolated hepatocyte preparation the, hepatoprotective activity was assessed against paracetamol, galactosamine carbon tetrachloride and thioacetamide induced damage.
The effect of cucurbitacin glucoside and F006 was also studied on paracetamol-toxicated isolated rat hepatocytes (ex vivo). At the doses of 0.5 and 1 mg/kg po×7.

cholestasis = test: Anticholestatic effect against induced cholestasis; assay type: in vivo; conditions: paracetamol induced; 0.5 and 1 mg/kg po × 7
[2] = system: thioacetamide induced hepatic damage (liver); test: Protection against thioacetamide induced biochemical changes in liver in rat; assay type: in vivo
Method: Although cucurbitacin glucoside (III) was a known compound, its biological activity is reported here for the first time. […] At higher dose (1 mg/kg) also, it reversed the decrease in levels of DNA (56%), RNA (100%) and glycogen (36%).

[3] = system: liver and serum biochemical parameters; test: Protection against altered liver and serum biochemical parameters (toxicant not given); assay type: in vivo
[4] = system: bile flow (choleretic effect); test: Choleretic effect of cucurbitacin glucoside and F006 (bile volume and bile contents); assay type: in vivo
[5] = dose not given, range given for both agents

SMILES: CC(=O)OC(C)(C)C=CC(=O)C(C)(O)C1C(O)CC2(C)C3CC=C4C(CC(O[C@@H]5O[C@H](CO)[C@@H](O)[C@H](O)[C@H]5O)C(O)C4(C)C)C3(C)CCC12C (stereo partly drawn) [Cucurbitacin glucoside, 25-acetoxy-2β-D-glucopyranoxy-3,16,20-trihydroxy-9-methyl-19-norlanosta-5,23-diene-22-one]
- protection against hepatic damage (biochemical parameters in serum and liver) [1]: marked protection
- protection by Trypan blue exclusion test (cell viability) (isolated rat hepatocytes; 0.5 mg/kg po × 7): 97.4%
- rate of oxygen consumption / oxygen uptake test (isolated rat hepatocytes; 0.5 mg/kg po × 7): 100%
- protection by Trypan blue exclusion test (cell viability) (isolated rat hepatocytes; 1 mg/kg po × 7): 100%
- rate of oxygen consumption / oxygen uptake test (isolated rat hepatocytes; 1 mg/kg po × 7): 100%
- reversal of decrease in bile acids (cholestasis): completely reversed
- reversal of decrease in bile flow (cholestasis): completely reversed
- reversal of decrease in bile salts (cholestasis): completely reversed
- toxicant-induced decrease in activity of succinate dehydrogenase ([2]; higher dose (1 mg/kg)): reversed significantly
- toxicant-induced increase in activity of acid ribonuclease ([2]; higher dose (1 mg/kg)): reversed significantly
- protection against decrease in DNA level in liver ([2]; thioacetamide, 0.48 mg/kg): 94%
- protection against decrease in RNA level in liver ([2]; thioacetamide, 0.48 mg/kg): 95%
- protection against decrease in glycogen level in liver ([2]; thioacetamide, 0.48 mg/kg): 60%
- reversal of decrease in DNA level ([2]; thioacetamide, 1 mg/kg): 56%
- reversal of decrease in RNA level ([2]; thioacetamide, 1 mg/kg): 100%
- reversal of decrease in glycogen level ([2]; thioacetamide, 1 mg/kg): 36%
- activity of cytochrome P450 ([3]; 1 mg/kg): significantly restored
- activity of γ-glutamyl transpeptidase ([3]; 1 mg/kg): significantly restored
- level of DNA ([3]; 1 mg/kg): significant reversal
- level of RNA ([3]; 1 mg/kg): significant reversal
- level of glycogen ([3]; 1 mg/kg): significant reversal
- serum level of GOT ([3]; 1 mg/kg): restored almost completely towards normal
- serum level of GPT ([3]; 1 mg/kg): restored almost completely towards normal
- level of bilirubin in serum ([3]; dose not given): recovered
- level of protein in serum ([3]; dose not given): recovered
- protection, level of phospholipids ([3]; dose not given): significant protection
- protection, 5'-nucleotidase activity [3, 5]: 46-56%
- protection, acid ribonuclease activity [3, 5]: 48-96%
- protection, glucose-6-phosphatase activity [3, 5]: 46-61%
- protection, level of DNA [3, 5]: 55-78%
- protection, level of protein [3, 5]: 96-100%
- recovery of increased level of total lipids [3, 5]: 44-55%
- increase in bile salts ([4]; 0.5 mg/kg): 40%
- increase in cholic acid ([4]; 0.5 mg/kg): 38.5%
- increase in deoxycholic acid ([4]; 0.5 mg/kg): 47.6%
- increase in volume of bile / bile flow ([4]; 0.5 mg/kg): 38%
- increase in bile salts ([4]; 1 mg/kg): 100%
- increase in cholic acid ([4]; 1 mg/kg): 100%
- increase in deoxycholic acid ([4]; 1 mg/kg): 100%
- increase in volume of bile / bile flow ([4]; 1 mg/kg): 90%
